As a reminder, the IC50 is the concentration needed to halve the response being measured.

This assay can be described thus: Inhibition of human recombinant SAHH at 1000 uM.

Take `Nc1ncnc2c1ncn2[C@@H]1CC[C@@H](O)[C@H]1O` [(1R,2S,3R)-3-(6-amino-9H-purin-9-yl)cyclopentane-1,2-diol]: the 50% inhibitory concentration (IC50) came out at 18 µM.

The values are drawn from BindingDB's records for doi:10.1016/j.bmcl.2008.03.029 (Gifu University, 2008).
